Patent publication US20030045699A1, “Membrane receptors for steroids and sterols” (priority 2001, published 2003)

System: polypeptide according to the invention (membrane receptor for steroids and sterols)
Experiment: Receptor binding studies (binding assay) with radiolabeled steroids and sterols
Design: species or system human
Conditions: qualitative statement in the description; no value given
Method: In addition, the invention relates to a test system for identifying effectors of a polypeptide according to the invention, whereby a polypeptide according to the invention is incubated as a complete or partial sequence thereof with a steroid, a steroid analog or a sterol, and the amount of bound steroid, steroid analog or sterol is detected. As a partial sequence, e.g., the area that comprises the “leucine-rich repeats” and the island domain or shorter strands thereof can be used. The binding of the effectors can be measured, e.g., by labeled substances being used and the labeling (e.g., radioactivity or fluorescence) being measured. A displacement reaction can also be measured, however, by a binding labeled steroid being used and the displacement of the labeling by the receptor being measured after the addition of the substances to be tested. […]
Crude extracts and cytosol fractions (0.04 ml) were incubated at 4° C. for 2 hours with 10 μl of radioactive steroid or sterol (concentration in the batch 10 nmol/l) either in the absence or in the presence of a 100× excess of a non-radioactive substance (for determining the unspecific bond). […] After centrifuging (5 minutes, 15,000 g), an aliquot of the supernatant was removed, and the radioactivity was determined by means of a scintillation counter. […]

binding of the substance by the polypeptide according to the invention: binds
Compound: CC(C)=CCC[C@@H](C)[C@H]1CC=C2C3=C(CC[C@@]21C)[C@@]1(C)CC[C@H](O)C(C)(C)[C@@H]1CC3 [FF-MAS]
